Data as given in patent US20230143345A1, “PHARMACEUTICAL COMPOSITION FOR PREVENTION OR TREATMENT OF DISEASES CAUSED BY SARS-COV-2” (DONG WHA PHARM. CO., LTD., priority 2020, published 2023).
Several values for one entry are separate records, joined by “and”; a condition that tells them apart may be missing. Equal values may be shown once. Read-outs that look alike come from different tables or passages of the source.

What was measured:
Vero cell lines = assay: Cell viability of Vero cells in the SARS-CoV-2 inhibition experiment (Example 2)
SARS-CoV-2 [1] = assay: microbe, parasite or virus in culture; assay type: cell-based; conditions: for SARS-CoV-2 inhibitory ability (in words): comparison at IC50 values with Remdesivir, Lopinavir and Chloroquine
VERO cells = assay: Cell viability of VERO cells by WST-1 assay (Example 3); conditions: read-out: 50% cell viability inhibitory concentration (CC50 value); VERO cells, WST-1 assay
SARS-CoV-2 [2] = assay: microbe, parasite or virus in culture; assay type: cell-based; conditions: read-out: SARS-CoV-2 virus 50% inhibitory ability (IC50 value); VERO cells infected at MOI 0.1 for one hour, then drug; culture fluid after 48 hours, qRT-PCR

Compound: COc1cc2c(OC)c3c(c(-c4ccc5c(c4)OCO5)c2cc1OC)C(=O)OC3 [Justicidin-A, 9-benzo[1,3]dioxol-5-yl-4,6,7-trimethoxy-3H -naphtho[2,3-c]furan-1-one]
- Cell viability (%, average ± standard deviation) (Vero cell lines; concentration 0.20 uM): 97.6 ± 0.61%
- Cell viability (%, average ± standard deviation) (Vero cell lines; concentration 0.39 uM): 101.3 ± 1.55%
- Cell viability (%, average ± standard deviation) (Vero cell lines; concentration 1.56 uM): 97.4 ± 0.09%
- Cell viability (%, average ± standard deviation) (Vero cell lines; concentration 3.13 uM): 98.4 ± 1.93%
- Cell viability (%, average ± standard deviation) (Vero cell lines; concentration 6.25 uM): 96.9 ± 3.33%
- Cell viability (%, average ± standard deviation) (Vero cell lines; concentration 12.5 uM): 96.5 ± 0.20%
- Cell viability (%, average ± standard deviation) (Vero cell lines; concentration 25 uM): 99.5 ± 1.81%
- Cell viability (%, average ± standard deviation) (Vero cell lines; concentration 50 uM): 98.0 ± 3.04%
- IC50 (SARS-CoV-2 [1]; Severe acute respiratory syndrome coronavirus 2, Vero, 24 h, read-out: SARS-CoV-2 virus 50% inhibitory ability (IC50 value)): 159 nM
- inhibition at 0.1 µM (SARS-CoV-2 [1]; Severe acute respiratory syndrome coronavirus 2, concentration 0.10 uM, Vero cells, 24 h, read-out: SARS-CoV-2 virus inhibitory ability (%, average ± standard deviation)): 25.7 ± 12.3%
- inhibition at 0.2 µM (SARS-CoV-2 [1]; Severe acute respiratory syndrome coronavirus 2, concentration 0.20 uM, Vero cells, 24 h, read-out: SARS-CoV-2 virus inhibitory ability (%, average ± standard deviation)): 75.3 ± 4.37%
- inhibition at 0.39 µM (SARS-CoV-2 [1]; Severe acute respiratory syndrome coronavirus 2, concentration 0.39 uM, Vero cells, 24 h, read-out: SARS-CoV-2 virus inhibitory ability (%, average ± standard deviation)): 95.2 ± 1.48%
- inhibition at […] (SARS-CoV-2 [1]; Severe acute respiratory syndrome coronavirus 2, concentration 0.78 uM, Vero cells, 24 h, read-out: SARS-CoV-2 virus inhibitory ability (%, average ± standard deviation)): 99 ± 1.58%
- inhibition at 1.56 µM (SARS-CoV-2 [1]; Severe acute respiratory syndrome coronavirus 2, concentration 1.56 uM, Vero cells, 24 h, read-out: SARS-CoV-2 virus inhibitory ability (%, average ± standard deviation)): 99 ± 0.57%
- inhibition at 3.13 µM (SARS-CoV-2 [1]; Severe acute respiratory syndrome coronavirus 2, concentration 3.13 uM, Vero cells, 24 h, read-out: SARS-CoV-2 virus inhibitory ability (%, average ± standard deviation)): 100 ± 0.36%
- inhibition at 6.25 µM (SARS-CoV-2 [1]; Severe acute respiratory syndrome coronavirus 2, concentration 6.25 uM, Vero cells, 24 h, read-out: SARS-CoV-2 virus inhibitory ability (%, average ± standard deviation)): 99.6 ± 0.16%
- inhibition at 12.5 µM (SARS-CoV-2 [1]; Severe acute respiratory syndrome coronavirus 2, concentration 12.5 uM, Vero cells, 24 h, read-out: SARS-CoV-2 virus inhibitory ability (%, average ± standard deviation)): 98.1 ± 1.47%
- inhibition at 25 µM (SARS-CoV-2 [1]; Severe acute respiratory syndrome coronavirus 2, concentration 25 uM, Vero cells, 24 h, read-out: SARS-CoV-2 virus inhibitory ability (%, average ± standard deviation)): 95.3 ± 0.61%
- inhibition at 50 µM (SARS-CoV-2 [1]; Severe acute respiratory syndrome coronavirus 2, concentration 50 uM, Vero cells, 24 h, read-out: SARS-CoV-2 virus inhibitory ability (%, average ± standard deviation)): 93.3 ± 1.69%
- SARS-CoV-2 inhibitory ability (in words) (SARS-CoV-2 [1]; Vero cells): remarkably more excellent

Compound: Cc1cccc(C)c1OCC(=O)N[C@@H](Cc1ccccc1)[C@@H](O)C[C@H](Cc1ccccc1)NC(=O)[C@H](C(C)C)N1CCCNC1=O [Lopinavir]
- inhibition at 25 µM (SARS-CoV-2 [1]; Severe acute respiratory syndrome coronavirus 2, Vero, 24 h, concentration 25 uM, Vero cells, 24 h, read-out: SARS-CoV-2 virus inhibitory ability (%, average ± standard deviation)): 99.01 ± 0.02%
- inhibition at 50 µM (SARS-CoV-2 [1]; Severe acute respiratory syndrome coronavirus 2, Vero, 24 h, concentration 50 uM, Vero cells, 24 h, read-out: SARS-CoV-2 virus inhibitory ability (%, average ± standard deviation)): 98.2 ± 2.11%
- IC50 (SARS-CoV-2 [1]; Severe acute respiratory syndrome coronavirus 2, Vero, 24 h, read-out: SARS-CoV-2 virus 50% inhibitory ability (IC50 value), Vero cells dosed while being infected, 24 h, compounds): 12600 nM
- SARS-CoV-2 virus inhibitory ability (%, average ± standard deviation) (SARS-CoV-2 [1]; concentration 0.10 uM, Vero cells, 24 h, 0.1 µM): 3.14 ± 0.24% and −0.2 ± 4.23%
- SARS-CoV-2 virus inhibitory ability (%, average ± standard deviation) (SARS-CoV-2 [1]; concentration 0.20 uM, Vero cells, 24 h, 0.2 µM): 0.2 ± 2.44%
- SARS-CoV-2 virus inhibitory ability (%, average ± standard deviation) (SARS-CoV-2 [1]; concentration 0.39 uM, Vero cells, 24 h, 0.39 µM): −0.60 ± 2.75% and 1.2 ± 5.71%
- SARS-CoV-2 virus inhibitory ability (%, average ± standard deviation) (SARS-CoV-2 [1]; concentration 1.56 uM, Vero cells, 24 h, 1.56 µM): 0.79 ± 3.76% and 1.7 ± 0.27%
- SARS-CoV-2 virus inhibitory ability (%, average ± standard deviation) (SARS-CoV-2 [1]; concentration 3.13 uM, Vero cells, 24 h, 3.13 µM): 3.03 ± 0.67% and 0.2 ± 6.78%
- SARS-CoV-2 virus inhibitory ability (%, average ± standard deviation) (SARS-CoV-2 [1]; concentration 6.25 uM, Vero cells, 24 h, 6.25 µM): 3.38 ± 5.94% and −0.1 ± 1.27%
- SARS-CoV-2 virus inhibitory ability (%, average ± standard deviation) (SARS-CoV-2 [1]; concentration 25 uM, Vero cells, 24 h, 25 µM): 98.6 ± 0.28%
- SARS-CoV-2 virus inhibitory ability (%, average ± standard deviation) (SARS-CoV-2 [1]; concentration 50 uM, Vero cells, 24 h, 50 µM): 99.6 ± 0.57%
- IC50 (SARS-CoV-2 [1]; read-out: SARS-CoV-2 virus 50% inhibitory ability (IC50 value), Vero cells dosed while being infected, 24 h, compounds): 14500 nM

Compound: COc1cc2cc3c(c(-c4ccc5c(c4)OCO5)c2cc1OC)C(=O)OC3 [Justicidin-B, 9-benzo[1,3]dioxol-5-yl-6,7-dimethoxy-3H-naphtho[2,3-c]furanone]
- Cell viability (%, average ± standard deviation) (Vero cell lines; concentration 0.10 uM): 107.08 ± 1.75%
- Cell viability (%, average ± standard deviation) (Vero cell lines; concentration 0.20 uM): 110.62 ± 0.00%
- Cell viability (%, average ± standard deviation) (Vero cell lines; concentration 0.39 uM): 107.70 ± 4.88%
- Cell viability (%, average ± standard deviation) (Vero cell lines; concentration 1.56 uM): 102.83 ± 5.24%
- Cell viability (%, average ± standard deviation) (Vero cell lines; concentration 3.13 uM): 98.69 ± 5.68%
- Cell viability (%, average ± standard deviation) (Vero cell lines; concentration 6.25 uM): 94.60 ± 3.46%
- Cell viability (%, average ± standard deviation) (Vero cell lines; concentration 12.5 uM): 90.01 ± 1.60%
- Cell viability (%, average ± standard deviation) (Vero cell lines; concentration 25 uM): 83.49 ± 1.22%
- Cell viability (%, average ± standard deviation) (Vero cell lines; concentration 50 uM): 78.67 ± 2.53%
- SARS-CoV-2 inhibitory ability (in words) (SARS-CoV-2 [1]; Vero cells): remarkably more excellent
- SARS-CoV-2 virus inhibitory ability (%, average ± standard deviation) (SARS-CoV-2 [1]; concentration 0.10 uM, Vero cells, 24 h): 13.37 ± 6.72%
- SARS-CoV-2 virus inhibitory ability (%, average ± standard deviation) (SARS-CoV-2 [1]; concentration 0.20 uM, Vero cells, 24 h): 48.73 ± 2.82%
- SARS-CoV-2 virus inhibitory ability (%, average ± standard deviation) (SARS-CoV-2 [1]; concentration 0.39 uM, Vero cells, 24 h): 88.06 ± 0.59%
- SARS-CoV-2 virus inhibitory ability (%, average ± standard deviation) (SARS-CoV-2 [1]; concentration 1.56 uM, Vero cells, 24 h): 99.61 ± 0.65%
- SARS-CoV-2 virus inhibitory ability (%, average ± standard deviation) (SARS-CoV-2 [1]; concentration 3.13 uM, Vero cells, 24 h): 100.03 ± 0.27%
- SARS-CoV-2 virus inhibitory ability (%, average ± standard deviation) (SARS-CoV-2 [1]; concentration 12.5 uM, Vero cells, 24 h): 100.01 ± 0.14%
- SARS-CoV-2 virus inhibitory ability (%, average ± standard deviation) (SARS-CoV-2 [1]; concentration 25 uM, Vero cells, 24 h): 100.00 ± 0.21%
- SARS-CoV-2 virus inhibitory ability (%, average ± standard deviation) (SARS-CoV-2 [1]; concentration 50 uM, Vero cells, 24 h): 100.28 ± 0.49%
- IC50 (SARS-CoV-2 [1]; read-out: SARS-CoV-2 virus 50% inhibitory ability (IC50 value)): 203 nM
- CC50 (VERO cells): > 800000 nM
- IC50 (SARS-CoV-2 [2]): 170 nM
